Measurements taken from US20090030066A1, “SMALL MOLECULES FOR THE PROTECTION OF PANCREATIC CELLS” (priority 2007, published 2009).

Legend:
[1] = system: AR42J rat pancreatic tumor cell line; test: MTT proliferation of AR42J pancreatic tumor cells; assay type: cell-based; settings: 96 h
Source text: In the Examples below, an MTT assay was used to determine the relative number of viable cells after treatments. This calorimetric assay is based on the ability of living cells, but not dead cells, to reduce 3-(4,5-dimethyl thiazol-2-yl)-2,5-diphenyltetrazolium bromide. [Carmichael, J, De Graff, W. G., Gazdar, A. F., Minna, J. D. and Mitchell, J. B. (1987) Evaluation of tetrazolium-based semiautomated calorimetric assay: Assessment of chemosensitivity testing. Cancer Res. 47, 936-942], which is hereby incorporated by reference. For this assay, cells were plated in 96-well plates, and the MTT assay was performed as described in the above article both in untreated and treated cell cultures. The MTT assay also was performed at the time when the treatment was started to allow for assessment of the proliferation and survival rates in the control and treated cell cultures. In the MTT assay, higher values mean proportionally higher numbers of viable cells.
The AR42J rat pancreatic tumor cell line, purchased from ATTC (catalog number: CRL-1492), was propagated in modified Ham's medium containing 20% fetal bovine serum. These cells, derived from a transplantable tumor of the exocrine pancreas, contain significant amounts of amylase and other exocrine enzymes and they produce tumors in athymic mice.
For the experiment, cells were split in 96-well plates at 15,000 cells per well. After 24 hours, the medium was changed for fresh medium (0 hour) and various concentrations of CCompound1 and CCompound3 were added and incubations continued for 96 hours. The MTT assay was used to determine the relative number of viable cells. From the data shown in TABLE 13, in the 2-25 μM concentration range CC compounds had only inhibitory effects on the proliferation of pancreatic cancer cells.

[2] = system: human bone marrow-derived mesenchymal stem cells (MSC); test: Expansion (cell count) of human bone marrow-derived mesenchymal stem cells; assay type: cell-based; settings: for Cell number per culture: Table 4 experiment; for Cell number/culture: Table 5 experiment
Source text: Bone marrow aspirates were taken from normal adult donors signed after informed consent according to a protocol approved by the appropriate Ethics Committee. For the preparation of bone marrow mesenchymal stem cells, essentially a widely used technique was used as described earlier by others [Pittenger, M. F., Mackay, A. M., Beck, S. C., Jaiswal, R. K., Douglas, R., Mosca, J. D., Moorman, M. A., Simonetti, D. W., Craig, S, and Marshak, D. R., Multilineage potential of adult human mesenchymal stem cells (1999) Science 284, 143-147]. Briefly, nucleated cells were isolated with a pre-prepared commercial density gradient (Lymphoprep, Nycomed, Pharma, Oslo, Norway) and resuspended in Dulbecco's modified Eagle's medium (DMEM) (GIBCO, Grand Island, N.Y.) supplemented with 10% fetal calf serum (FCS), 50 U/ml of penicillin, and 50 μg/ml of streptomycin (GIBCO). All nucleated cells were plated in 25-cm^2 flasks (BD Falcon, Bedford, Mass.) at 37° C. in humidified atmosphere containing 5% CO2. After 24 hours, nonadherent cells were removed and cryopreserved in liquid nitrogen until use. The remaining adherent cells were thoroughly washed with Hanks balanced salt solution (HBSS) (GIBCO). Fresh complete culture medium was added and replaced every 3 or 4 days (twice a week). When cells grew to about 80% confluence, they were suspended and harvested by incubating with a ready-made solution containing 0.25% trypsin and 1 mM EDTA (Sigma-Aldrich, St. Louis, Mo.) for 5 minutes at 37° C.; this cell suspension is designated as passage 1. These cells were further expanded with 1:3-1:5 splitting in 175-cm^2 flasks (BD Falcon).
The total numbers of nucleated and viable cells were determined with a hemocytometer, using Turck's solution and trypan blue stain, respectively. The morphology of MSC was examined every week under an inverted microscope (Olympos CK2, Tokyo, Japan) to verify that cells retained their structural characteristics. In the two experiments described below, MSCs were split into 24-well “F-bottom” plates at passage 5.
In both experiments, about 80% confluent cells were split into 24-well “F-bottom” plates. Then after 24 hours in 10% serum containing medium (at about 30-35% confluence), the medium was replaced for either serum-free medium or 2% or 10 fetal calf serum containing medium. […] In both experiments, the data are the mean ±S.D. of 5 incubations.

Structure (SMILES): Cc1c(OCC(O)C[N+](C)(C)C)cc2c(=O)c3ccccc3sc2c1C.[Cl-] (centres unmarked) [CCcompound1, [3-(3,4-Dimethyl-9-oxo-9H-thioxanthen-2-yloxy)-2-hydroxypropyl]trimethyl-ammonium chloride]
- A540 (MTT, relative number of viable cells) ([1]; 2 μM): 1.092 ± 0.083
- A540 (MTT, relative number of viable cells) ([1]; 5 μM): 0.954 ± 0.080
- A540 (MTT, relative number of viable cells) ([1]; 10 μM): 0.882 ± 0.062
- A540 (MTT, relative number of viable cells) ([1]; 25 μM): 0.781 ± 0.090
- effect on MSC proliferation ([2]; 10 μM, 10% serum): enhanced cell proliferation
- effect on expansion of stem cells ([2]; 5-10 μM, absence and presence of 2% serum, between days 3 and 6): significantly increased the expansion of stem cells
- effect on MSC cell numbers ([2]; 5-10 μM, absence or presence of 2% serum, first 3 days): slightly enhance cell numbers
- Cell number per culture ([2]; 0% serum, day 2, 5 μM): 6.4 ± 2.0 ×10^−3
- Cell number per culture ([2]; 0% serum, day 2, 10 μM): 5.9 ± 1.9 ×10^−3
- Cell number per culture ([2]; 0% serum, day 2, 50 μM): 4.0 ± 1.6 ×10^−3
- Cell number per culture ([2]; 0% serum, day 4, 5 μM): 8.1 ± 2.1 ×10^−3
- Cell number per culture ([2]; 0% serum, day 4, 10 μM): 6.8 ± 2.4 ×10^−3
- Cell number per culture ([2]; 0% serum, day 4, 50 μM): 3.4 ± 1.1 ×10^−3
- Cell number per culture ([2]; 0% serum, day 6, 5 μM): 12.5 ± 1.6 ×10^−3
- Cell number per culture ([2]; 0% serum, day 6, 10 μM): 10.2 ± 1.4 ×10^−3
- Cell number per culture ([2]; 0% serum, day 6, 50 μM): 3.8 ± 1.2 ×10^−3
- Cell number per culture ([2]; 2% serum, day 2, 5 μM): 7.1 ± 2.7 ×10^−3
- Cell number per culture ([2]; 2% serum, day 2, 10 μM): 6.3 ± 1.6 ×10^−3
- Cell number per culture ([2]; 2% serum, day 2, 50 μM): 3.9 ± 1.1 ×10^−3
- Cell number per culture ([2]; 2% serum, day 4, 5 μM): 11.6 ± 2.4 ×10^−3
- Cell number per culture ([2]; 2% serum, day 4, 10 μM): 9.2 ± 2.3 ×10^−3
- Cell number per culture ([2]; 2% serum, day 4, 50 μM): 5.2 ± 1.6 ×10^−3
- Cell number per culture ([2]; 2% serum, day 6, 5 μM): 20.8 ± 2.5 ×10^−3
- Cell number per culture ([2]; 2% serum, day 6, 10 μM): 17.4 ± 2.0 ×10^−3
- Cell number per culture ([2]; 2% serum, day 6, 50 μM): 7.0 ± 3.3 ×10^−3
- Cell number/culture ([2]; 2.0 μM, 0% serum, Day 3): 4.7 ± 3.5 ×10^−3
- Cell number/culture ([2]; 2.0 μM, 0% serum, Day 6): 6.2 ± 1.7 ×10^−3
- Cell number/culture ([2]; 2.0 μM, 2% serum, Day 3): 4.9 ± 2.6 ×10^−3
- Cell number/culture ([2]; 2.0 μM, 2% serum, Day 6): 16.4 ± 2.5 ×10^−3
- Cell number/culture ([2]; 2.0 μM, 10% serum, Day 3): 5.9 ± 1.7 ×10^−3
- Cell number/culture ([2]; 2.0 μM, 10% serum, Day 6): 33.3 ± 5.2 ×10^−3
- Cell number/culture ([2]; 5.0 μM, 0% serum, Day 3): 5.9 ± 2.1 ×10^−3
- Cell number/culture ([2]; 5.0 μM, 0% serum, Day 6): 10.3 ± 2.5 ×10^−3
- Cell number/culture ([2]; 5.0 μM, 2% serum, Day 3): 7.2 ± 1.3 ×10^−3
- Cell number/culture ([2]; 5.0 μM, 2% serum, Day 6): 18.3 ± 4.8 ×10^−3
- Cell number/culture ([2]; 5.0 μM, 10% serum, Day 3): 6.2 ± 2.6 ×10^−3
- Cell number/culture ([2]; 5.0 μM, 10% serum, Day 6): 36.4 ± 5.2 ×10^−3
- Cell number/culture ([2]; 10.0 μM, 0% serum, Day 3): 6.3 ± 2.2 ×10^−3
- Cell number/culture ([2]; 10.0 μM, 0% serum, Day 6): 13.3 ± 3.2 ×10^−3
- Cell number/culture ([2]; 10.0 μM, 2% serum, Day 3): 5.6 ± 1.6 ×10^−3
- Cell number/culture ([2]; 10.0 μM, 2% serum, Day 6): 19.0 ± 3.8 ×10^−3
- Cell number/culture ([2]; 10.0 μM, 10% serum, Day 3): 5.1 ± 1.7 ×10^−3
- Cell number/culture ([2]; 10.0 μM, 10% serum, Day 6): 39.1 ± 4.1 ×10^−3
- Cell number/culture ([2]; 25.0 μM, 0% serum, Day 3): 4.4 ± 1.7 ×10^−3
- Cell number/culture ([2]; 25.0 μM, 0% serum, Day 6): 6.4 ± 3.1 ×10^−3
- Cell number/culture ([2]; 25.0 μM, 2% serum, Day 3): 4.7 ± 2.6 ×10^−3
- Cell number/culture ([2]; 25.0 μM, 2% serum, Day 6): 12.9 ± 4.9 ×10^−3
- Cell number/culture ([2]; 25.0 μM, 10% serum, Day 3): 5.2 ± 2.1 ×10^−3
- Cell number/culture ([2]; 25.0 μM, 10% serum, Day 6): 33.5 ± 5.3 ×10^−3
- Cell number/culture ([2]; 100.0 μM, 0% serum, Day 3): 1.1 ± 1.6 ×10^−3
- Cell number/culture ([2]; 100.0 μM, 0% serum, Day 6): 1.3 ± 1.1 ×10^−3
- Cell number/culture ([2]; 100.0 μM, 2% serum, Day 3): 1.5 ± 1.1 ×10^−3
- Cell number/culture ([2]; 100.0 μM, 2% serum, Day 6): 5.8 ± 3.2 ×10^−3
- Cell number/culture ([2]; 100.0 μM, 10% serum, Day 3): 4.4 ± 2.5 ×10^−3
- Cell number/culture ([2]; 100.0 μM, 10% serum, Day 6): 14.8 ± 3.1 ×10^−3
- decrease of the effects on cell survival and proliferation when added late ([2]; compound added 6 hours after medium change, data not shown): 50-70%
